Laboratory results published in paper PMC3426654 (Biochemistry, 2012).

Biological target: TcUGM (UDP-galactopyranose mutase from Trypanosoma cruzi) (Trypanosoma cruzi, UniProt Q4E1W2)
Assay: X-ray crystal structure, […] Å
Type: binding
Details: UDP complex, pH 7.5

Compound | X-ray crystal structure, 2.25 Å (crystals reduced by soaking in 60 mM dithionite) | X-ray crystal structure, 2.25 Å (oxidized enzyme)
Cc1cc2c(cc1C)N(C[C@H](O)[C@H](O)[C@H](O)COP(=O)(O)OP(=O)(O)OC[C@H]1O[C@@H](n3cnc4c(N)ncnc43)[C@H](O)[C@@H]1O)c1[nH]c(=O)[nH]c(=O)c1N2 [FADH^−] | In the reduced enzyme, the FAD exhibits a butterfly-like conformation | 
Cc1cc2nc3c(=O)[nH]c(=O)nc-3n(C[C@H](O)[C@H](O)[C@H](O)COP(=O)(O)OP(=O)(O)OC[C@H]3O[C@@H](n4cnc5c(N)ncnc54)[C@H](O)[C@@H]3O)c2cc1C [FAD] |  | In the oxidized state, the electron density maps are consistent with a planar isoalloxazine
